The values below come from US7166622B2, “Substituted phenylsulfonamide inhibitors of beta amyloid production” (Wyeth, priority 2002, dated 2007).

One data set deals with beta amyloid production. The data set can be described thus: Repressor Release Assay (RRA). Type of data set: cell-based. As to conditions: for APPI % of Example #98: relative to Example 98. As to the method: CHO-K1 cells were cultured in whole DMEM media (DMEM—High Glucose with 10% fetal bovine serum, 1% Non-essential Amino Acids, and 1% Penicillin-Streptomycin) at 37° C. with 5% CO2. Two million cells were plated into 10-cm dishes 24 hrs prior to transfection.
Transient transfections were completed as recommended by Gibco BRL using their Lipofectamine Plus system. First, 6 μg of pRSVO-luc and 6 μg of APP-lacI construct DNA were added to 460 μL Opti-Mem transfection media and incubated with 30 μL Plus reagent for 15 minutes. Then, a lipid mixture of 40 μL Lipofectamine reagent and 460 μL Opti-Mem transfection media was incubated with the DNA-Plus reagent mixture for 15 minutes. During the DNA-lipid incubation, the CHO-K1 cells were washed once and covered in 5.0 mL DMEM media without Penicillin-Streptomycin. The DNA-lipid preparation was then layered onto these cells and incubated at 37° C. overnight.
[…] transfected cells per well (100 μL total volume) were plated into sterile, opaque Packard 96-well Culture-Plates in clear DMEM whole media (DMEM—without phenol red) and incubated at 37° C. with 5% CO2 for 3-5 hours.
Compounds were diluted using two different protocols; one protocol was used for compounds supplied neat (weighed powder in vial) and the other protocol was used for compounds supplied in solution (20 mM in DMSO in 96-well plates). For both protocols, 25 mM Hepes and 25 mM Hepes/1% DMSO were prepared fresh to be used as diluent. The Hepes/DMSO was used as the diluent control on all experimental plates.
The following table depicts the steps for compound dilution (please note that the last step was the addition of compound to cells/media in tissue culture plate).
Because some compounds were present in 96-well format at 20 mM, the following represents the protocol for their dilution (note that an average molecular weight of these compounds was used to calculate these dilutions and as above, the last step was the addition of compound to cells/media in tissue culture plate).
Once the compounds were diluted, they were applied in duplicate on cells in tissue culture plates (prepared above). Cells were incubated with compound at 37° C. with 5% CO2 for an additional 36-48 hours.
Luciferase assays (LucLite reagent, Packard) were performed and were read on a Packard TopCount instrument. Media was removed from each 96-well plate and replaced with 100 μL PBS per well (with Mg^2+ and Ca^2+). An equal volume (100 μL) of the LucLite lysis/substrate buffer was added to each well and the plates were sealed and mixed in the dark on a rotary shaker for 15-30 minutes at room temperature. Luciferase readings were then taken on the TopCount instrument. Measurements were expressed as relative light units (RLU) and are calculated and analyzed in MS Excel as follows: […]

In another data set the test system is CHO-K1 cells. The data set can be described thus: Toxicity in RRA (loss of luciferase signal). As to conditions: toxicity = loss of signal (<0.75 fold increase).
Setting [1] is: Conc 10 μg/ml, luciferase activity over diluent control, read-out: APPI Fold Increase.
The mark [2] stands for this setting: Conc 20 μg/ml, luciferase activity over diluent control, read-out: APPI Fold Increase.
Where [3] appears, read: Conc 20 μg/ml, luciferase activity (RLU) over diluent control, read-out: APPI Fold Increase.
Setting [4] is: Conc 20 μg/ml, 1=non-toxic, 0=toxic.
The mark [5] stands for this setting: Conc 10 μg/ml, luciferase activity over diluent control.

Each structure is given as a SMILES string. “And” between values parts separate entries of the source, which are not always exact repeats. Equal entries are not always repeated. Where two headings read alike, the source gives them in different places.

Procedure for CHO-K1 cells: The beta amyloid inhibitory activity of the compounds of the present invention was determined using the Repressor Release Assay (RRA).
“Fold Increase” refers to the amount of luciferase activity (measured in relative light units) over diluent control. “SEM” refers to the standard error of the mean for fold increase.

Regarding `CC[C@H](C)[C@H](NS(=O)(=O)c1ccc(Cl)cc1)C(O)c1ccc(N(C)C)cc1` (stereo partly drawn) [Example 183, 4-chloro-N-{(1S,2S)-1-[[4-(dimethylamino)phenyl](hydroxy)methyl]-2-methylbutyl}benzenesulfonamide], the fold induction at 10 µg/mL with beta amyloid production (setting [1]) was 4.49. The “(%)APPI Toxicity” value with CHO-K1 cells (Conc 10 μg/ml) is listed as 1 (1=non-toxic).

For `CCCCCC(O)(CCCCC)[C@@H](NS(=O)(=O)c1ccc(F)cc1)[C@@H](C)CC` [Example 237, 4-fluoro-N-{(1S)-2-hydroxy-1-[(1S)-1-methylpropyl]-2-pentylheptyl}benzenesulfonamide], the fold induction at 10 µg/mL with beta amyloid production (setting [1]) stood at 6.05. In addition, the “(%)APPI Toxicity” value in the data set with CHO-K1 cells (Conc 10 μg/ml) is 1 (1=non-toxic).

As to `CC[C@H](C)[C@@H](CO)NS(=O)(=O)c1c(C)cccc1Cl` [Example 7, 2-chloro-N-[(1S,2S)-1-(hydroxymethyl)-2-methylbutyl]-6-methylbenzenesulfonamide], in the data set with beta amyloid production (setting [2]), the fold induction at 20 µg/mL was 1.6. Further, in the data set on CHO-K1 cells (Conc 20 μg/ml), the “(%)APPI Toxicity” value is reported as 1 (1=non-toxic).

`CCCCC[C@H](CC)[C@@H](CO)NS(=O)(=O)c1ccc(Br)cc1` [Example 81, 4-bromo-N-[(1S,2S)-2-ethyl-1-(hydroxymethyl)heptyl]benzenesulfonamide]: the fold induction at 20 µg/mL in the data set on beta amyloid production (setting [3]) worked out at 5. The “(%)APPI Toxicity” value in the data set on CHO-K1 cells (setting [4]) is listed as 1 (1=non-toxic).

As for `C=C(C)C(O)(C(=C)C)[C@@H](NS(=O)(=O)c1ccc(Br)cc1)[C@@H](C)CC` [Example 219, 4-bromo-N-{(1S)-2-hydroxy-2-isopropenyl-3-methyl-1-[(1S)-1-methylpropyl]-3-butenyl}benzenesulfonamide], in the data set with beta amyloid production (setting [1]), the fold induction at 10 µg/mL was determined as 1.8. Moreover, the fold induction at 20 µg/mL with beta amyloid production (setting [2]) was determined as 2.8. Further, the “(%)APPI Toxicity” value in the data set with CHO-K1 cells (Conc 10 μg/ml) and in the data set with CHO-K1 cells (Conc 20 μg/ml) was 1 (1=non-toxic) each time.

`CCC(CC)[C@@H](CO)NS(=O)(=O)c1ccc(Cl)cc1` [Example 52, 4-chloro-N-[(1S)-2-ethyl-1-(hydroxymethyl)butyl]benzenesulfonamide]: the fold induction at 20 µg/mL in the data set on beta amyloid production (setting [3]) came to 6.2. The “(%)APPI Toxicity” value in the data set with CHO-K1 cells (setting [4]) is 1 (1=non-toxic).

Turning to `CC[C@@H](CO)NS(=O)(=O)c1cccc(Cl)c1` [Example 108, 3-chloro-N-[(1S)-1-(hydroxymethyl)propyl]benzene sulfonamide], the fold induction at 3 µg/mL with beta amyloid production (Conc 3 μg/ml, luciferase activity over diluent control, read-out: APPI Fold Increase) came to 1.66. The “(%)APPI Toxicity” value in the data set on CHO-K1 cells (Conc 3 μg/ml) is recorded as 1 (1=non-toxic).

For the molecule `CCCCCCC(O)(CCCCCC)[C@@H](NS(=O)(=O)c1ccc(F)cc1)[C@@H](C)CC` [Example 236, 4-fluoro-N-{(1S)-2-hexyl-2-hydroxy-1-[(1S)-1-methylpropyl]octyl}benzenesulfonamide], the “(%)APPI Toxicity” value with CHO-K1 cells (Conc 10 μg/ml) is given as 1 (1=non-toxic).

As to `CC[C@H](C)[C@H](NS(=O)(=O)c1ccc(Cl)cc1)C(O)(c1cccc2ccccc12)c1cccc2ccccc12` [Example 234, 4-chloro-N-((1S,2S)-1-{hydroxy[di(1-naphthyl)]methyl}-2-methylbutyl) benzenesulfonamide], the “APPI Fold Increase” value in the data set on beta amyloid production (setting [5]) was 2.9 fold and 1.6 fold. In the data set on CHO-K1 cells (Conc 10 μg/ml), the “(%)APPI Toxicity” value is recorded as 1 (1=non-toxic).

Turning to `CC[C@H](CC(C)C)[C@@H](CO)NS(=O)(=O)c1ccc(Br)cc1` [Example 73, 4-bromo-N-[(1S,2R)-2-ethyl-1-(hydroxymethyl)-4-methylpentyl]benzenesulfonamide], the fold induction at 20 µg/mL in the data set with beta amyloid production (setting [3]) amounted to 5.4. Also, the “(%)APPI Toxicity” value with CHO-K1 cells (setting [4]) is 1 (1=non-toxic).

As to `O=S(=O)(NC1(CO)CCCC1)c1ccc(Cl)cc1` [Example 103, 4-chloro-N-[1-(hydroxymethyl)cyclopentyl]benzenesulfonamide], the fold induction at 20 µg/mL with beta amyloid production (setting [2]) is 2.6. The “(%)APPI Toxicity” value in the data set with CHO-K1 cells (Conc 20 μg/ml) was 1 (1=non-toxic).

For `CC[C@H](C)[C@H](NS(=O)(=O)c1ccc(Br)cc1)C(O)C(C)(C)C` (stereo partly drawn) [Example 149, 4-bromo-N-{(1S)-2-hydroxy-3,3-dimethyl-1-[(1S)-1-methylpropyl]butyl}benzenesulfonamide], the “(%)APPI Toxicity” value in the data set with CHO-K1 cells (Conc 10 μg/ml) was 1 (1=non-toxic).

For the molecule `CC[C@H](C)[C@H](NS(=O)(=O)c1ccc(F)cc1)C(O)(c1ccc(N(C)C)cc1)c1ccc(N(C)C)cc1` [Example 247, N-{(1S,2S)-1-[bis[4-(dimethylamino)phenyl](hydroxy)methyl]-2-methylbutyl}-4-fluorobenzenesulfonamide], the fold induction at 10 µg/mL in the data set with beta amyloid production (setting [1]) stood at 1.54. For the same molecule, the “(%)APPI Toxicity” value with CHO-K1 cells (Conc 10 μg/ml) is recorded as 1 (1=non-toxic).

For the molecule `CC[C@H](C)[C@H](NS(=O)(=O)c1ccc(Br)cc1)C(O)CC(C)C` (stereo partly drawn) [Example 150, 4-bromo-N-{(S)-2-hydroxy-4-methyl-1-[(1S)-1-methylpropyl]pentyl}benzenesulfonamide], the “(%)APPI Toxicity” value in the data set with CHO-K1 cells (Conc 10 μg/ml) is 1 (1=non-toxic).

As for `CCCCCCC(O)[C@@H](NS(=O)(=O)c1ccc(F)cc1)[C@@H](C)CC` (stereo partly drawn) [Example 128, 4-fluoro-N-{(1S)-2-hydroxy-1-[(1S)-1-methylpropyl]octyl}benzenesulfonamide], in the data set with CHO-K1 cells (Conc 10 μg/ml), the “(%)APPI Toxicity” value is on record as 1 (1=non-toxic).

With `CC[C@H](C)[C@H](NS(=O)(=O)c1ccc(F)cc1)C(O)(c1cccc2ccccc12)c1cccc2ccccc12` [Example 248, 4-fluoro-N-((1S,2S)-1-{hydroxy[di(1-naphthyl)]methyl}-2-methylbutyl)benzenesulfonamide], the “(%)APPI Toxicity” value with CHO-K1 cells (Conc 10 μg/ml) is reported as 1 (1=non-toxic).

On to `CC[C@H](C)[C@@H](CO)N(CCNC(=O)OC(C)(C)C)S(=O)(=O)c1ccc(Cl)cc1` [Example 42, tert-butyl 2-{([4-chlorophenyl)sulfonyl][(1S,2S)-1-(hydroxymethyl)-2-methylbutyl]amino} ethyl carbamate], for which the “APPI Fold Increase” value with beta amyloid production (Conc 20 μg/ml, luciferase activity over diluent control) was found to be 1.9 fold. In addition, the “APPI % of Example #98” value in the data set on beta amyloid production (Conc 20 μg/ml) is reported as 71.7%.

In the case of `C[C@H](NC(=O)Cc1cc(F)cc(F)c1)C(=O)N[C@H](C(=O)OC(C)(C)C)c1ccccc1` [DAPT, reference compound], the “fold increase in luciferase activity” value in the data set on beta amyloid production (at 10 μg/mL, luciferase activity over diluent control, transfected CHO-K1 cells) is on record as 6.0-28.1 fold increase.

Turning to `CCCCCC(O)[C@@H](NS(=O)(=O)c1ccc(F)cc1)[C@@H](C)CC` (stereo partly drawn) [Example 129, 4-fluoro-N-{(1S)-2-hydroxy-1-[(1S)-1-methylpropyl]heptyl}benzenesulfonamide], the “(%)APPI Toxicity” value with CHO-K1 cells (Conc 10 μg/ml) was 1 (1=non-toxic).

In the case of `CCCCCC(O)(CCCCC)[C@@H](NS(=O)(=O)c1ccc(Br)cc1)[C@@H](C)CC` [Example 212, 4-bromo-N-{(1S)-2-hydroxy-1-[(1S)-1-methylpropyl]-2-pentylheptyl}benzenesulfonamide], the “(%)APPI Toxicity” value in the data set on CHO-K1 cells (Conc 10 μg/ml) is listed as 1 (1=non-toxic).

Turning to `CCCCCC(O)[C@@H](NS(=O)(=O)c1ccc(Cl)cc1)[C@@H](C)CC` (stereo partly drawn) [Example 168, 4-chloro-N-{(1S)-2-hydroxy-1-[(1S)-1-methylpropyl]heptyl}benzenesulfonamide], in the data set with CHO-K1 cells (Conc 10 μg/ml), the “(%)APPI Toxicity” value is given as 1 (1=non-toxic).

For `CC[C@H](C)[C@H](NS(=O)(=O)c1ccccc1F)C(O)C1CCCC1` (stereo partly shown) [Example 202], the “APPI Fold Increase” value with beta amyloid production (setting [5]) worked out at 1.62 fold. Besides, the “APPI % of Example #98” value in the data set on beta amyloid production (Conc 10 μg/ml) amounted to 55.79%.

As for `C=CCC(O)[C@@H](NS(=O)(=O)c1ccc(Cl)cc1)[C@@H](C)CC` (stereo partly drawn) [Example 175, 4-chloro-N-{(1S)-2-hydroxy-1-[(1S)-1-methylpropyl]-4-pentenyl}benzenesulfonamide], the “(%)APPI Toxicity” value in the data set on CHO-K1 cells (Conc 10 μg/ml) was 1 (1=non-toxic).

As to `CC[C@H](C)[C@H](NS(=O)(=O)c1ccc(Br)cc1)C(O)(CC(C)C)CC(C)C` [Example 214, 4-bromo-N-{(1S)-2-hydroxy-2-isobutyl-4-methyl-1-[(1S)-1-methylpropyl]pentyl} benzenesulfonamide], in the data set with CHO-K1 cells (Conc 10 μg/ml), the “(%)APPI Toxicity” value is reported as 1 (1=non-toxic).

As to `CC[C@H](C)[C@H](NS(=O)(=O)c1ccc(Cl)cc1)C(O)C1CCCC1` (stereo partly drawn) [Example 166, 4-chloro-N-{(1S,2S)-1-[cyclopentyl(hydroxy)methyl]-2-methylbutyl}benzenesulfonamide], in the data set with CHO-K1 cells (Conc 10 μg/ml), the “(%)APPI Toxicity” value is reported as 1 (1=non-toxic).
